Assay results: PMC9865363, “Identification of Human UDP-Glucuronosyltransferase Involved in Gypensapogenin C Glucuronidation and Species Differences” (International Journal of Molecular Sciences, 2023)

Assays:
recombinant human UGT1A4 = target: T1, recombinant human UGT1A4 (Homo sapiens, UniProt P22310); test: Recombinant human UGT enzyme assay of GPC glucuronidation, UGT1A4; type: in vitro ADME; details: recombinant UGT1A4 0.1 mg/mL, GPC 1 and 10 μM
T1 construct: purchased Cypex (Scotland, UK)
T1 sequence (P22310 29-534): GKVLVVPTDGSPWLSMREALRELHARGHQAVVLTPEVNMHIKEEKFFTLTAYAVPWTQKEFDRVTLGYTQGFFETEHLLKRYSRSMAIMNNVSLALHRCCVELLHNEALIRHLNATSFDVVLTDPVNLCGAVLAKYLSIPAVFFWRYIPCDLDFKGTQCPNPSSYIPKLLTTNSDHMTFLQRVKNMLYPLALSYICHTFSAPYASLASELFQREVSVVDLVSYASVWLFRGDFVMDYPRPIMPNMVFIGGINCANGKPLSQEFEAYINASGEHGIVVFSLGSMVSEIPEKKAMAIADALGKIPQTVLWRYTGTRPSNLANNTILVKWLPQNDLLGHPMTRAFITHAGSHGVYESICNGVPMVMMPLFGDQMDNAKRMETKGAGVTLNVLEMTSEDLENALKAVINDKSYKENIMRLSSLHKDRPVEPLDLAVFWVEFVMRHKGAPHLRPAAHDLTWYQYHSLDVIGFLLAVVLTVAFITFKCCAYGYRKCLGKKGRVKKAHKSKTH
Protocol: (§1) The glucuronidation incubation system consisted of Tris-HCl buffer (50 mM, pH = 7.4), magnesium chloride (4 mM), alamethicin (12.5 μg/mL), human liver microsomes (0.5 mg/mL), UDPGA (100 mM), and GPC (20 μM).
(§2) The glucuronidation metabolic activity of GPC at two concentration levels (1 and 10 μM) was determined using an incubation system with 10 recombinant human UGT enzymes (UGT1A1, 1A3, 1A4, 1A6, 1A7, 1A8, 1A9, 1A10, 2B7, 2B17) (0.1 mg/mL). The incubation conditions were the same as in Section 4.3, except for the protein concentration of 0.1 mg/mL. Lastly, metabolites were detected using LC–MS/MS.

[1] = system: recombinant human UGT1A1, 1A3, 1A6, 1A7, 1A8, 1A9, 1A10, 2B7, and 2B17; test: Recombinant human UGT enzyme assay of GPC glucuronidation, remaining isoenzymes; type: in vitro ADME; details: remaining recombinant UGT isoenzymes 0.1 mg/mL, GPC 1 and 10 μM
Protocol: as §1, §2

[2] = GPC glucuronidation in rat liver microsomes (enzyme kinetics, species comparison); details: Sprague-Dawley, rat, rat liver microsomes, pH 7.4
[3] = system: glucuronidation (GPCG formation); test: as above; details: Sprague-Dawley, rat, rat liver microsomes, pH 7.4
[4] = system: rat liver microsomes (RLM); test: as above; details: 30 min
[5] = GPC glucuronidation in dog liver microsomes (enzyme kinetics, species comparison); details: Beagle, dog, dog liver microsomes, pH 7.4
[6] = system: dog liver microsomes (DLM); test: as above; details: 30 min
[7] = system: glucuronidation (GPCG formation); test: as above; details: Beagle, dog, dog liver microsomes, pH 7.4
[8] = GPC glucuronidation in pig liver microsomes (enzyme kinetics, species comparison); details: minipig, pig, pig liver microsomes, pH 7.4
[9] = system: glucuronidation (GPCG formation); test: as above; details: pig, pig liver microsomes, pH 7.4
[10] = system: pig liver microsomes (PLM); test: as above; details: 30 min
[11] = GPC glucuronidation in human liver microsomes (enzyme kinetics, species comparison); details: human, human liver microsomes, pH 7.4
[12] = system: glucuronidation (GPCG formation); test: as above; details: human, human liver microsomes, pH 7.4
[13] = system: human liver microsomes (HLMs); test: as above; details: 30 min
[14] = GPC glucuronidation in mouse liver microsomes (enzyme kinetics, species comparison); details: ICR/CD-1, mouse, mouse liver microsomes, pH 7.4
[15] = system: glucuronidation (GPCG formation); test: as above; details: ICR/CD-1, mouse, mouse liver microsomes, pH 7.4
[16] = system: mouse liver microsomes (MLM); test: as above; details: MLMs 0.2 mg/mL, GPC 2–200 μM, 30 min, substrate inhibition fit
[17] = GPC glucuronidation in rabbit liver microsomes (enzyme kinetics, species comparison); details: New Zealand, rabbit, rabbit liver microsomes, pH 7.4
[18] = system: glucuronidation (GPCG formation); test: as above; details: New Zealand, rabbit, rabbit liver microsomes, pH 7.4
[19] = system: rabbit liver microsomes (RaLM); test: as above; details: RaLMs 0.2 mg/mL, GPC 2–200 μM, 30 min, substrate inhibition fit
[20] = GPC glucuronidation in bovine liver microsomes (enzyme kinetics, species comparison); details: bovine, bovine liver microsomes, pH 7.4
[21] = system: bovine liver microsomes (BLM); test: as above; details: 30 min
[22] = system: glucuronidation (GPCG formation); test: as above; details: bovine, bovine liver microsomes, pH 7.4
[23] = GPC glucuronidation in monkey liver microsomes (enzyme kinetics, species comparison); details: monkey, monkey liver microsomes, pH 7.4
[24] = system: glucuronidation (GPCG formation); test: as above; details: monkey, monkey liver microsomes, pH 7.4
[25] = system: monkey liver microsomes (MkLM); test: as above; details: 30 min
[26] = system: GPC glucuronidation in human liver microsomes; test: Chemical inhibition of GPC glucuronidation in human liver microsomes; details: GPC 15 μM, HLMs 0.2 mg/mL, 30 min
Protocol: (§3) The glucuronidation incubation system consisted of Tris-HCl buffer (50 mM, pH = 7.4), magnesium chloride (4 mM), alamethicin (12.5 μg/mL), human liver microsomes (0.5 mg/mL), UDPGA (100 mM), and GPC (20 μM). […] The incubation system was first preincubated at 37 °C for 3 min before adding UDPGA to initiate the reaction. The reaction was terminated […] with the addition of an equal volume of iced acetonitrile (containing 30 μM PPT). After vortexing for 3 min, the supernatant obtained was centrifuged at 14,300 rpm for 15 min at 4 °C and used for LC–MS/MS analysis.
(§4) Glucuronidation metabolism of GPC in HLMs was inhibited using hecogenin, phenylbutazone, fluconazole, and magnolol. The concentrations of the four inhibitors were set to 1, 10, 50, and 200 μM, and the concentration of GPC was set to 15 μM. The incubation time and protein concentration were […], respectively. All the rest of the incubation conditions were as in Section 4.3. The incubation without inhibitor but with the same volume of DMSO was set to be the solvent control.

GPC glucuronidation = test: as above; details: human, pH 7.4
Protocol: as §3, §4

[27] = inhibitor 1, 10, 50, and 200 μM

With CC(C)=C1CC=C([C@H]2CC[C@]3(C)[C@@H]2CC[C@@H]2[C@@]4(C)CC[C@H](O)C(C)(C)[C@@H]4CC[C@]23C)C1=O [GPC, Gypensapogenin C] the “catalytic activity for GPC glucuronidation” value (recombinant human UGT1A4) was “highest catalytic activity”, the “catalytic activity for GPC glucuronidation” value [1] was “none of the remaining UGT isoenzymes showed activity” and the microsomal CLint [2] was 40 µL/min/mg. The Km at 30 min [3] was 94.1 ± 89.8 µM, the Vmax ([4]; RLMs 0.2 mg/mL, GPC 2–200 μM, substrate inhibition fit) was 3.80 ± 3.01 nmol/min/mg and the “GPC glucuronidation product generation (semiquantitative, peak area ratio)” value ([4]; rat liver microsomes 0.2 mg/mL, GPC 10 and 50 μM) was “Trace amounts”. For the same molecule, the microsomal CLint [5] was 2120 µL/min/mg, the Vmax ([6]; DLMs 0.2 mg/mL, GPC 2–200 μM, substrate inhibition fit) was 20.28 ± 2.57 nmol/min/mg and the “GPC glucuronidation product generation (semiquantitative, peak area ratio)” value ([6]; dog liver microsomes 0.2 mg/mL, GPC 10 and 50 μM) was “highest amounts”. It also gave a Km at 30 min [7] of 9.56 ± 2.83 µM, a microsomal CLint [8] of 147 µL/min/mg and a Km at 30 min [9] of 9.58 ± 2.32 µM. The Vmax ([10]; PLMs 0.2 mg/mL, GPC 2–200 μM, substrate inhibition fit) was 1.41 ± 0.18 nmol/min/mg, the “GPC glucuronidation product generation (semiquantitative, peak area ratio)” value ([10]; pig liver microsomes 0.2 mg/mL, GPC 10 and 50 μM) was “Trace amounts” and the microsomal CLint [11] was 27 µL/min/mg. The Km at 30 min [12] was 15.4 ± 5.26 µM, the Vmax ([13]; HLMs 0.2 mg/mL, GPC 2–200 μM, substrate inhibition fit) was 0.42 ± 0.09 nmol/min/mg and the “GPC glucuronidation product generation (semiquantitative, peak area ratio)” value ([13]; human liver microsomes 0.2 mg/mL, GPC 10 and 50 μM) was “Trace amounts”. For the same molecule, the microsomal CLint [14] was 690 µL/min/mg, the Km at 30 min [15] was 10 ± 2.1 µM and the Vmax [16] was 6.93 ± 0.69 nmol/min/mg. For the same molecule, the microsomal CLint [17] was 304 µL/min/mg, the Km at 30 min [18] was 16.2 ± 3.77 µM and the Vmax [19] was 4.92 ± 0.57 nmol/min/mg. The microsomal CLint [20] was 259 µL/min/mg, the Vmax ([21]; BLMs 0.2 mg/mL, GPC 2–200 μM, substrate inhibition fit) was 3.17 ± 0.89 nmol/min/mg and the “GPC glucuronidation product generation (semiquantitative, peak area ratio)” value ([21]; bovine liver microsomes 0.2 mg/mL, GPC 10 and 50 μM) was “Trace amounts”. It also gave a Km at 30 min [22] of 12.2 ± 5.16 µM, a microsomal CLint [23] of 77 µL/min/mg and a Km at 30 min [24] of 107 ± 73.2 µM. The Vmax ([25]; MkLMs 0.2 mg/mL, GPC 2–200 μM, substrate inhibition fit) was 8.29 ± 4.69 nmol/min/mg and the “GPC glucuronidation product generation (semiquantitative, peak area ratio)” value ([25]; monkey liver microsomes 0.2 mg/mL, GPC 10 and 50 μM) was “Trace amounts”.

With C=CCc1ccc(O)c(-c2cc(CC=C)ccc2O)c1 [Magnolol, magnolol] the “inhibition of GPC glucuronidation (in words)” value (shortened to “inhibition … (in words)”) ([26]; inhibitor 1–50 μM) was “insignificant inhibition” and the inhibition at 30 min, 200 μM (GPC glucuronidation) was 50%.

With OC(Cn1cncn1)(Cn1cncn1)c1ccc(F)cc1F [fluconazole] the “inhibition … (in words)” value [26, 27] was “Neither fluconazole nor phenylbutazone inhibited”.

For CCCCC1C(=O)N(c2ccccc2)N(c2ccccc2)C1=O [phenylbutazone], the “inhibition … (in words)” value [26, 27] was “Neither fluconazole nor phenylbutazone inhibited”.

In the case of hecogenin, the “inhibition of GPC glucuronidation” value ([26]; inhibitor 1 μM) is reported as “more than 40%” and the “inhibition of GPC glucuronidation” value ([26]; inhibitor 10 μM) is reported as 70%.
